This test addresses Growth hormone secretagogue receptor type 1 (Homo sapiens, UniProt Q92847). As to the kind of experiment: SUPPLEMENTARY: Agonist activity at GSHR by FLIPR assay. Same assay as CHEMBL941945. The test is classed as functional.
Growth hormone secretagogue receptor type 1, sequence (Q92847 whole entry): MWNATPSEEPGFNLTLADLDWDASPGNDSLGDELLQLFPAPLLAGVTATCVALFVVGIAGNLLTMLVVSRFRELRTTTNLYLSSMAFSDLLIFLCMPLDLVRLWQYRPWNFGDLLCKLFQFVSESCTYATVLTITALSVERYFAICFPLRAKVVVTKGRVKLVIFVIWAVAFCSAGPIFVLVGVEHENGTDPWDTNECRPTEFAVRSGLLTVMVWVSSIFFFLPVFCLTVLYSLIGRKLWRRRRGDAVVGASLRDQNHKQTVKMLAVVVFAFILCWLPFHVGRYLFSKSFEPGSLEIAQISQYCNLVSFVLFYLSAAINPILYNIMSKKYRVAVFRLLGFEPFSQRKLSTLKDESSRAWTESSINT
For `COc1ccc(N2C[C@@H](C)N[C@@H](C)C2)cc1NS(=O)(=O)c1ccc(-c2ccc(Cl)s2)cc1`, the EC50 – broadly, the concentration that produces a half-maximal response – was 12.6 nM.
With `Cc1ccc(-c2ccc(S(=O)(=O)Nc3cccc(N4C[C@@H](C)N[C@@H](C)C4)n3)cc2F)o1`, the response was half-maximal at 1 nM (EC50).
Next, `Cc1ccc(-c2ccc(S(=O)(=O)Nc3ccnc(N4C[C@@H](C)N[C@@H](C)C4)n3)cc2F)o1`: 31.6 nM; `Cc1ccc(-c2ccc(S(=O)(=O)Nc3cc(N4C[C@@H](C)N[C@@H](C)C4)ccn3)cc2F)o1`: 20 nM; `COc1ncc(N2C[C@@H](C)N[C@@H](C)C2)cc1NS(=O)(=O)c1ccc(-c2ccc(C)o2)c(F)c1`: 63.1 nM.
As to `COc1ccc(N2C[C@@H](C)N[C@@H](C)C2)nc1NS(=O)(=O)c1ccc(-c2cc(C)cs2)cc1Cl`, the EC50 is 5.01 nM.
Next, `Cc1ccc(-c2ccc(S(=O)(=O)Nc3cc(N4C[C@@H](C)N[C@@H](C)C4)c[nH]c3=O)cc2F)o1`: 10 nM; `COc1ccc(N2C[C@@H](C)N[C@@H](C)C2)nc1NS(=O)(=O)c1ccc(-c2ccoc2)cc1Cl`: 25.1 nM; `COc1ccc(NS(=O)(=O)c2sc3ccc(Cl)cc3c2C)cc1N1C[C@@H](C)N[C@@H](C)C1`: 31.6 nM.
`COc1ccc(NS(=O)(=O)c2ccc3ccccc3c2)cc1N1C[C@@H](C)N[C@@H](C)C1` gave an EC50 of 15.8 nM.
`COc1ccc(NS(=O)(=O)c2cccc3ccccc23)cc1N1C[C@@H](C)N[C@@H](C)C1`: it took 31.6 nM to reach a half-maximal effect (EC50).
As for `COc1ccc(NS(=O)(=O)/C=C/c2ccccc2)cc1N1C[C@@H](C)N[C@@H](C)C1`, the EC50 is 15.8 nM.
For `COc1ccc(NS(=O)(=O)c2ccc(Oc3ccccc3)cc2)cc1N1C[C@@H](C)N[C@@H](C)C1`, the 50% effective concentration (EC50) was 126 nM.
Under `COc1ccc(NS(=O)(=O)c2cccc3cccnc23)cc1N1C[C@@H](C)N[C@@H](C)C1` stands 398 nM; under `COc1ccc(NS(=O)(=O)c2ccc(Cl)c(Cl)c2)cc1N1C[C@@H](C)N[C@@H](C)C1`, 63.1 nM; under `COc1ccc(NS(=O)(=O)c2ccc(-n3cccn3)cc2)cc1N1C[C@@H](C)N[C@@H](C)C1`, 6.31 nM.
Turning to `COc1ccc(NS(=O)(=O)c2ccc(-c3cccs3)cc2)cc1N1C[C@@H](C)N[C@@H](C)C1`, the response was half-maximal at 1 nM (EC50).
`COc1ccc(NS(=O)(=O)c2ccc(-c3cccc(C)n3)s2)cc1N1C[C@@H](C)N[C@@H](C)C1` showed an EC50 of 0.631 nM.
Take `COc1ccc(NS(=O)(=O)c2ccc(N3CCCC3=O)cc2)cc1N1C[C@@H](C)N[C@@H](C)C1`: a half-maximal effect (EC50) was put at 79.4 nM.
Turning to `COc1ccc(N2C[C@@H](C)N[C@@H](C)C2)cc1NS(=O)(=O)c1ccc2ccccc2c1`, it took 7.94 nM to reach a half-maximal effect (EC50).
Turning to `COc1ccc(N2C[C@@H](C)N[C@@H](C)C2)cc1NS(=O)(=O)c1ccc(Br)s1`, the EC50 is 126 nM.
The compound `COc1ccc(N2C[C@@H](C)N[C@@H](C)C2)cc1NS(=O)(=O)c1ccc(-c2cccc(C)n2)cc1` had an EC50 of 10 nM.
Under `COc1ccc(N2C[C@@H](C)N[C@@H](C)C2)cc1NS(=O)(=O)c1ccc(-c2cccc(C)n2)s1` stands 10 nM; under `COc1ccc(N2C[C@@H](C)N[C@@H](C)C2)cc1NS(=O)(=O)c1cccc(Cl)c1Cl`, 15.8 nM; under `COc1ccc(N2C[C@@H](C)N[C@@H](C)C2)cc1NS(=O)(=O)c1cccc2cccnc12`, 50.1 nM.
Turning to `COc1ccc(N2C[C@@H](C)N[C@@H](C)C2)cc1NS(=O)(=O)c1ccc(Cl)c(Cl)c1`, the EC50 is 50.1 nM.
Compound `COc1ccc(N2C[C@@H](C)N[C@@H](C)C2)cc1NS(=O)(=O)c1ccc(-c2cnco2)cc1` gave an EC50 of 50.1 nM.
Compound `COc1ccc(N2C[C@@H](C)N[C@@H](C)C2)cc1NS(=O)(=O)c1ccc(-c2cccnc2)cc1` had an EC50 of 100 nM.
For the compound `COc1ccc(N2C[C@@H](C)N[C@@H](C)C2)cc1NS(=O)(=O)c1ccc(-c2ccsc2)cc1`, the EC50 was 5.01 nM.
Next, `COc1ccc(N2C[C@@H](C)N[C@@H](C)C2)cc1NS(=O)(=O)c1ccc(-c2cccnc2)s1`: 100 nM; `COc1ccc(N2C[C@@H](C)N[C@@H](C)C2)cc1NS(=O)(=O)c1ccc(-c2ccsc2)s1`: 5.01 nM.
`COc1ccc(NS(=O)(=O)c2ccc(-c3cccc(C)n3)cc2)cc1N1C[C@@H](C)N[C@@H](C)C1`: the EC50 was 15.8 nM.
Under `COc1ccc(N2C[C@@H](C)N[C@@H](C)C2)cc1NS(=O)(=O)c1cc2cc(Cl)ccc2s1` stands 25.1 nM; under `COc1ccc(NS(=O)(=O)c2ccc(-c3cnco3)cc2)cc1N1C[C@@H](C)N[C@@H](C)C1`, 39.8 nM.
With `COc1ccc(N2C[C@@H](C)N[C@@H](C)C2)cc1NS(=O)(=O)c1cccc(Br)c1`, the EC50 is 158 nM.
As to `COc1cc(F)c(N2C[C@@H](C)N[C@@H](C)C2)cc1NS(=O)(=O)c1ccc(-c2cccs2)cc1`, the midpoint of the response, the EC50, lay at 7.94 nM.
Under `COc1cc(F)c(N2C[C@@H](C)N[C@@H](C)C2)cc1NS(=O)(=O)c1ccc(-c2ccccn2)s1` stands 20 nM; under `COc1ccc(N2C[C@@H](C)N[C@@H](C)C2)cc1NS(=O)(=O)c1ccc(-c2cccs2)s1`, 3.98 nM.
Take `C[C@@H]1CN(c2cc(NS(=O)(=O)c3ccc(-c4cccs4)cc3)ccc2C#N)C[C@H](C)N1`: the EC50 is 100 nM.
The compound `COc1ccc(Oc2cccc(S(=O)(=O)Nc3cc(N4C[C@@H](C)N[C@@H](C)C4)ccc3OC)c2)cc1` gave an EC50 of 100 nM.
For the compound `COc1ccc(N2C[C@@H](C)N[C@@H](C)C2)cc1NS(=O)(=O)c1csc2ccccc12`, the EC50 was 10 nM.
As to `COc1ccc(N2C[C@@H](C)N[C@@H](C)C2)cc1NS(=O)(=O)c1sc2ccc(F)cc2c1C`, the EC50 was 31.6 nM.
For `COc1ccc(NS(=O)(=O)c2ccc(-c3ccsc3)cc2)cc1N1C[C@@H](C)N[C@@H](C)C1`, the EC50 was 2.51 nM.
Under `COc1ccc(N2C[C@@H](C)N[C@@H](C)C2)cc1NS(=O)(=O)c1cccc(-c2cccs2)c1` stands 15.8 nM; under `COc1ccc(NS(=O)(=O)c2ccc(-c3ccsc3)s2)cc1N1C[C@@H](C)N[C@@H](C)C1`, 1.58 nM; under `COc1ccc(NS(=O)(=O)c2ccc(-c3ccccc3)s2)cc1N1C[C@@H](C)N[C@@H](C)C1`, 1 nM.
Under `C[C@@H]1CN(c2ccc(O)c(NS(=O)(=O)c3ccc(-c4ccccn4)s3)c2)C[C@H](C)N1` stands 25.1 nM.
With `COc1ccc(N2C[C@@H](C)N[C@@H](C)C2)cc1NS(=O)(=O)c1ccc2c(Cl)cccc2c1`, the EC50 was 1.58 nM.
`COc1ccc(NS(=O)(=O)c2ccc(-c3cnco3)s2)cc1N1C[C@@H](C)N[C@@H](C)C1` gave an EC50 of 39.8 nM.
For `COc1ccc(N2C[C@@H](C)N[C@@H](C)C2)cc1NS(=O)(=O)c1ccc(-c2cnccc2OC)s1`, the EC50 was 31.6 nM.
Next, `CCOc1ccc(N2C[C@@H](C)N[C@@H](C)C2)cc1NS(=O)(=O)c1ccc(-c2cccs2)cc1`: 12.6 nM; `CC(C)Oc1ccc(N2C[C@@H](C)N[C@@H](C)C2)cc1NS(=O)(=O)c1ccc(-c2cccs2)cc1`: 15.8 nM.
Compound `COc1ccc(NS(=O)(=O)c2ccc(Br)cc2C)cc1N1C[C@@H](C)N[C@@H](C)C1` gave an EC50 of 39.8 nM.
As for `C[C@@H]1CN(c2cccc(NS(=O)(=O)c3cccc4ccccc34)c2)C[C@H](C)N1`, the EC50 was 10 nM.
On to `COCc1cccc(-c2ccc(S(=O)(=O)Nc3cc(N4C[C@@H](C)N[C@@H](C)C4)ccc3OC)cc2)c1`, for which the EC50 was 6.31 nM.

These data come from ChEMBL document CHEMBL2364335, “Structure-activity relationship data for chemical series of achiral agonists of the ghrelin (growth hormone secretagogue) receptor (Supplementary Bioactivity Data for publication CHEMBL1140573)”.
